Consider 2 compounds from US9248149B2, “Methods for treating a neoplastic disease in a subject using inorganic selenium-containing compounds” (THE BOARD OF TRUSTEES OF THE LELAND STANFORD JUNIOR …, priority 2003, dated 2016).

Series [1] deals with LAPC-4 prostate cancer cells. Briefly: Apoptosis as sub-G1 fraction by FACS of PI-stained cells. In kind it is cell-based, human. The settings on record: for percentage of sub-G1 cells (apoptosis): 48 hours. Here is the method:
(§1) Cell Cultures and Treatments. LAPC-4 prostate cancer cells (provided by Dr. Charles Sawyers, UCLA) were cultured in phenol red free RPMI 1640 (Life Technologies, Rockville, Md.) supplemented with 10% fetal bovine serum (Gemini Bio-Products, Woodland, Calif.) at 37° C. in a humidified atmosphere with 5% CO2.
Detection of Apoptosis. Flow cytometry analysis (FACS) analysis of propidium iodide (PI)-stained cells was used to quantify the percentage of apoptotic cells as the fraction of cells with a hypodiploid amount of DNA (Sub-G1). Cells were fixed and permeabilized with 100% ice-cold ethanol at 4° C. overnight. The cells were resuspended in 500 μl of buffer (phosphate buffered saline (PBS), 5 mM EDTA) and incubated with 200 μg/ml RNase A for 30 min at room temperature and then 50 μg/ml PI for 10 min at room temperature. The cell cycle distribution was analyzed using Facstar flow cytometry (Becton-Dickinson, San Jose, Calif.). Cleavage of Caspase-3 as a marker of caspase-mediated apoptosis was also detected by immunoblot analysis (see below).
Background: Flow cytometry measures light scatter and fluorescence of single cells or particles in a stream.

In another series the test system is LAPC-4 tumors. The series can be described thus: Selenite and radiation combination therapy in mice with LAPC-4 tumors. The format is in vivo.
Series [2] relates to DU 145 prostate cancer cells. The series can be described thus: GSH-reductase recycling assay, GSH:GSSG ratio. In kind it is cell-based. Conditions: 10 μM selenite, basal level 146.4±14.0. As to the method:
DU 145 prostate cancer cells (American Type Culture Collection, Rockville, Md.) were cultured in RPMI 1640 (+phenol red) supplemented with 10% fetal bovine serum. When the cells reached 50% confluence the media was replaced and selenite was added at the noted concentrations.
(§2) Determination of Intracellular GSH and GSSG Content. The determination of intracellular GSH and GSSG content following exposure to selenite was performed using the GSH-reductase recycling assay (Vandeputte et al., Cell Biol Toxicol, 10: 415-421 (1994)). This assay measures the reaction of GSH with 5,5′-dithiobis(2-nitrobenzoic acid) (DTNB). […] The 96-well plate assay was prepared by mixing 20 μl of sample or known GSH standard, 20 μl of stock buffer, 200 μl of reaction buffer (1 mM 5,5′-dithiobis(2-nitrobenzoic acid (DTNB) and 0.34 mM nicotinamide adenine dinucleotide phosphate (NADPH) in stock buffer), and 40 μl of GSH reductase (8.5 U/ml). The reaction was recorded kinetically at 30-sec intervals for 6 min at a wavelength of 405 nm GSSG was measured following GSH derivatization with 2-vinylpyridine and triethanolamine. GSSG was measured as described above using known GSSG standards. The concentration of GSH and GSSG was expressed as nmol/mg of protein.

The subject of series [3] is LAPC-4 cells. The series can be described thus: GSH-reductase recycling assay, intracellular GSH and GSSG. The format is cell-based, human. The settings on record: 10 μM selenite. As to the method:
Determination of Intracellular GSH and GSSG Content. The determination of intracellular GSH and GSSG content following exposure to selenite was performed using the GSH-reductase recycling assay (Vandeputte et al., Cell Biol Toxicol, 10: 415-421 (1994)). This assay measures the reaction of GSH with 5,5′-dithiobis(2-nitrobenzoic acid) (DTNB). Briefly, cells (floating and adherent) were rinsed in cold stock buffer (143 mM sodium phosphate, 6.3 mM EDTA, pH7.4), and lysed by repeated freeze thawing in 130 μl of 10 mM HCl. Following lysis a 10 μl sample was removed and used for protein determination. Proteins were precipitated on ice for 15 min with 30 μl of 6.5% sulfosalicyclic acid and centrifuged for 15 min at 2000×g and 4° C. The supernatants were collected and stored at −80° C. until assayed. The 96-well plate assay was prepared by mixing 20 μl of sample or known GSH standard, 20 μl of stock buffer, 200 μl of reaction buffer (1 mM 5,5′-dithiobis(2-nitrobenzoic acid (DTNB) and 0.34 mM nicotinamide adenine dinucleotide phosphate (NADPH) in stock buffer), and 40 μl of GSH reductase (8.5 U/ml). The reaction was recorded kinetically at 30-sec intervals for 6 min at a wavelength of 405 nm GSSG was measured following GSH derivatization with 2-vinylpyridine and triethanolamine. GSSG was measured as described above using known GSSG standards. The concentration of GSH and GSSG was expressed as nmol/mg of protein.

A further series deals with DU 145 cells. The series can be described thus: Clonogenic survival assay. In kind it is cell-based. The settings on record: for SF2: normalized for killing from selenite alone, radiation alone 0.554; for surviving fraction, selenite alone: assessed at 17 days. Here is the method:
(§3) Clonogenic Survival Assays. In Examples 1-4 below, LAPC-4 cells were treated with or without selenite for 6 hours prior to receiving 2 Gy of ionizing radiation. In other Examples, LAPC-4 and DU 145 cells were treated with 10 μM selenite for 6 or 12 hours treatment with 2 or 5 Gy of γ-irradiation.
(§4) Following irradiation cells were trypsinized, counted, and seeded in triplicate into 60 mm dishes. At least two dilutions of cells were used for each treatment group. Plated cells were allowed to grow for 14 or 17 days before being stained with 0.25% crystal violet in 75% ethanol. Resulting colonies with greater than 50 cells were scored. The surviving fraction was calculated as the plating efficiency of treated cells divided by the plating efficiency of untreated cells. SF2 is the survival fraction of exponentially growing cells that were irradiated at the clinically relevant dose of 2 Gy. The SF2 enhancement ratio (SF2 ER) is defined here as the SF2 without treatment divided by the SF2 for cells treated with selenite.

Series [4] deals with LAPC-4 prostate cancer cells. Briefly: MTS cell proliferation assay. In kind it is cell-based, human. Conditions: 48 hours. Here is the method: as §1
Cell proliferation assay. Cells were seeded in 96-well plates (10,000 cells/well) and treated with selenite for 48 hours. Cell survival was assayed using the CellTiter 96 AQueous One Solution Cell Proliferation Assay (Promega, Madison, Wis.). The MTS tetrazolium solution was added directly to the wells, incubated at 37° C. for 3 hours, and then the absorbance was read at 490 nm with a 96 well plate reader (Vmax Kinetic Microplate Reader, Molecular Devices, Sunnyvale, Calif.).
A general note: Tetrazolium assays rely on reduction of a dye to a coloured formazan, in cell work by metabolically active cells.

The subject of series [5] is LAPC-4 cells. The series can be described thus: Clonogenic survival assay. The format is cell-based, human. Here is the method:
as §3, §4

The test system of series [6] is normal prostate cells (E-PZ-3). Briefly: GSH-reductase recycling assay, GSH:GSSG ratio. The settings on record: 25 μM selenite, 48 hours. The format is cell-based, human.
Text: (§5) Primary prostate epithelial cell strains from normal prostate (PZ) and prostate cancer (CA) tissue were provided by Dr. Donna Peehl (Stanford University) using well established methods she has previously described (Peehl, Human prostatic epithelial cells. In: Culture of Epithelial Cells, 2nd edition, Freshney, R. I. and Freshney, M. G. (eds.), Wiley-Liss, Inc., N.Y., 171-194 (2002)). Three matched pairs of normal and cancer cell strains were available for study (E-PZ/CA-1, E-PZ/CA-2, and E-PZ/CA-3). Normal cell strains were obtained from a region of the prostate peripheral zone not involved in cancer. E-CA-1, E-CA-2, and E-CA-3 cell strains were derived from prostate carcinomas. Cells were treated at 50-70% confluence.
as §2, with “Content.” for “Content. The determination of intracellular GSH and GSSG content following exposure to selenite was performed using the GSH-reductase recycling assay (Vandeputte et al., Cell Biol Toxicol, 10: 415-421 (1994)). This assay measures the reaction of GSH with 5,5′-dithiobis(2-nitrobenzoic acid) (DTNB).”

For series [7], the system named is prostate cancer cells (E-CA-3). The series can be described thus: GSH-reductase recycling assay, GSH:GSSG ratio. In kind it is cell-based, human. The settings on record: 25 μM selenite, 48 hours.
Text: as §5
as §2, with “Content.” for “Content. The determination of intracellular GSH and GSSG content following exposure to selenite was performed using the GSH-reductase recycling assay (Vandeputte et al., Cell Biol Toxicol, 10: 415-421 (1994)). This assay measures the reaction of GSH with 5,5′-dithiobis(2-nitrobenzoic acid) (DTNB).”

Take `CCCCS(=N)(=O)CCC(N)C(=O)O` (centres unmarked) [BSO, buthionine sulfoximine, reference compound]: the induction of apoptosis entry in series [1] (BSO 500 μM for 72 hrs) is given as “did not induce significant apoptosis”.

Consider `O=[Se](O)O` [selenite, Sodium selenite], for which the tolerability entry in the series with LAPC-4 tumors (selenite treated mice) is “very well tolerated”. The weight loss entry with LAPC-4 tumors (selenite treated mice compared with local tumor irradiation alone) is “no significant weight loss”. Moreover, the “percentage of sub-G1 cells (apoptosis)” value in series [1] (10 μM selenite) is reported as 14.5%; in [1] (25 μM selenite) it was 26.1%. Moreover, the “GSH:GSSG ratio” value in [2] (6 hours) is 57.5±13.8; in [2] (12 hours), 5.7±1.8; in the series with LAPC-4 cells [3] (6 hours, untreated 129.4±13.6), 15.1±2.3. The “decrease of GSH:GSSG ratio” value is on record as 88.3% with LAPC-4 cells [3] (6 hours), 41.1% in series [6] and 65.9% in series [7]. Moreover, the “total GSH level” value with LAPC-4 cells [3] (48 hours, basal level 52.1±5.6) came out at 11.8 ± 2.1 nmol/mg. For the same compound, the SF2 came to 0.343 in the series with DU 145 cells (10 μM selenite 6 hr pre 2 Gy γ-irradiation); 0.199 with DU 145 cells (10 μM selenite 12 hr pre 2 Gy γ-irradiation); 0.056 with LAPC-4 cells [5] (10 μM selenite 6 hr pre 2 Gy γ-irradiation, normalized for killing from selenite alone, radiation alone 0.244). Moreover, the “SF2 ER” value with DU 145 cells (10 μM selenite 6 hr pre radiation) came out at 1.62; in the series with DU 145 cells (10 μM selenite 12 hr pre radiation), 2.78; with LAPC-4 cells [5] (10 μM selenite 6 hr pre radiation, SF2 without treatment divided by SF2 with selenite) it was 4.36. The “surviving fraction, selenite alone” value with DU 145 cells (10 μM selenite for 6 hours) amounted to 0.941; with DU 145 cells (10 μM selenite for 12 hours) it was 0.409; in the series with LAPC-4 cells [5] (10 μM selenite for 6 hours, no radiation) it was 0.431±0.021. For the same compound, the Cell proliferation is reported as 53.3 % of control in series [4] (10 μM selenite) and 33.4 % of control in [4] (25 μM selenite).
